Reference: ChEMBL document CHEMBL5236660, “Design, synthesis, and biological evaluation of quinoxalinone derivatives as potent BRD4 inhibitors” (Bioorg Med Chem, 2023)
Activity calls are given as the source filed them. The calls are words filed in the database; no cut-off is given here.

What was measured:
[1] = target: Bromodomain-containing protein 4 (Homo sapiens, UniProt O60885); test: Inhibition of BRD4 BD1 (unknown origin) by TR-FRET assay
[2] = system: HT-29; test: Antiproliferative activity against human HT-29 cells assessed as reduction in cell viability incubated for 72 hrs by MTT assay; format: functional, cell-based; conditions: HT-29, 72 h
[3] = system: HepG2; test: Antiproliferative activity against human HepG2 cells assessed as reduction in cell viability incubated for 72 hrs by MTT assay; format: functional, cell-based; conditions: HepG2, 72 h
[4] = Cytotoxicity against human GES1 cells assessed as reduction in cell viability incubated for 72 hrs by MTT assay; format: toxicity, cell-based
[5] = system: MCF7; test: Antiproliferative activity against human MCF7 cells assessed as reduction in cell viability incubated for 72 hrs by MTT assay; format: functional, cell-based; conditions: MCF7, 72 h
[6] = system: HepG2; test: Induction of cell cycle arrest in human HepG2 cells assessed as accumulation at G0/G1 phase at 5 uM incubated for 24 hrs by flow cytometry (Rvb= 46.5%); format: functional
[7] = system: HepG2; test: Induction of apoptosis in human HepG2 cells assessed as increase in cleaved caspase-3 level at 2.5 uM incubated for 24 hrs by Western blot analysis; format: functional, cell-based
[8] = system: HepG2; test: Induction of apoptosis in human HepG2 cells assessed as total apoptotic cells at 5 uM incubated for 24 hrs by Annexin-V/PI staining based flow cytometry (Rvb=5.14%); format: functional
[9] = system: HepG2; test: Induction of apoptosis in human HepG2 cells assessed as early apoptotic cells at 5 uM incubated for 24 hrs by Annexin-V/PI staining based flow cytometry (Rvb=4.48%); format: functional
[10] = system: HepG2; test: Induction of apoptosis in human HepG2 cells assessed as increase in p21 level at 2.5 uM incubated for 24 hrs by Western blot analysis; format: functional, cell-based
[11] = system: HepG2; test: Induction of apoptosis in human HepG2 cells assessed as late apoptotic cells at 5 uM incubated for 24 hrs by Annexin-V/PI staining based flow cytometry (Rvb=0.66%); format: functional
[12] = system: HepG2; test: Induction of apoptosis in human HepG2 cells assessed as necrotic cells at 5 uM incubated for 24 hrs by Annexin-V/PI staining based flow cytometry (Rvb=0.85%); format: functional
[13] = system: HepG2; test: Induction of cell cycle arrest in human HepG2 cells assessed as accumulation at S phase at 5 uM incubated for 24 hrs by flow cytometry (Rvb= 20.1%); format: functional
[14] = system: HepG2; test: Inhibition of c-myc expression in human HepG2 cells at 5 uM incubated for 24 hrs by Western blot analysis; format: functional, cell-based
[15] = system: HepG2; test: Induction of cell cycle arrest in human HepG2 cells assessed as accumulation at G2/M phase at 5 uM incubated for 24 hrs by flow cytometry (Rvb= 14.05%); format: functional
[16] = system: HepG2; test: Induction of apoptosis in human HepG2 cells assessed as viable cells at 5 uM incubated for 24 hrs by Annexin-V/PI staining based flow cytometry (Rvb=94.0%); format: functional; conditions: read-out: Activity

Row | Compound | IC50 [1] [µM] | IC50 [2] [µM] | IC50 [3] [µM] | IC50 [5] [µM] | IC50 at 72 h [4] [µM] | other results
1 | Cc1nc2cc(-c3cc(C(=O)N4CCOCC4)ccc3Oc3ccc(F)cc3F)ccc2[nH]c1=O | 1.48 | – | – | – | – | –
2 | COc1ccccc1Oc1ccc(NS(C)(=O)=O)cc1-c1ccc2[nH]c(=O)c(C)nc2c1 | 2.83 | – | – | – | – | –
3 | Cc1ccccc1Oc1ccc(NS(C)(=O)=O)cc1-c1ccc2[nH]c(=O)c(C)nc2c1 | 2.12 | – | – | – | – | –
4 | Cc1nc2cc(-c3cc(C(=O)NCCO)ccc3Oc3ccc(F)cc3F)ccc2[nH]c1=O | 0.621 | 15.1 | 17.9 | > 50 | > 100 | –
5 | Cc1nc2cc(-c3cc(NS(C)(=O)=O)ccc3Oc3ccc(Cl)cc3)ccc2[nH]c1=O | 0.341 | 8.09 | 11.3 | 4.64 | 18.1 | –
6 | CCS(=O)(=O)Nc1ccc(Oc2ccc(F)cc2F)c(-c2ccc3[nH]c(=O)c(C)nc3c2)c1 | 0.0483 | 16.8 | 5.41 | 9.78 | 20.2 | –
7 | CCS(=O)(=O)Nc1ccc(Oc2ccc(F)cc2F)c(-c2cn(C)c(=O)c3[nH]ccc23)c1 [MIVEBRESIB] | 0.0007 | 1.84 | 4.29 | 12.3 | 4.31 | Activity [6]: 56.2%; Activity [7]: Active; Activity [8]: 34.81%; Activity [9]: 32%; Activity [10]: Active; Activity [11]: 2.81%; Activity [12]: 1.63%; Activity [13]: 13.1%; inhibition [14]: Active; Activity [15]: 19.6%; viability at 5 µM [16]: 63.6%
8 | Cc1nc2cc(-c3cc(NS(C)(=O)=O)ccc3Oc3ccccc3C(F)(F)F)ccc2[nH]c1=O | 2.65 | – | – | – | – | –
9 | Cc1nc2cc(-c3cc(C=O)ccc3Oc3ccc(F)cc3F)ccc2[nH]c1=O | 2.51 | – | – | – | – | –
10 | CCS(=O)(=O)Cc1ccc(Oc2ccc(F)cc2F)c(-c2ccc3[nH]c(=O)c(C)nc3c2)c1 | 0.777 | 25.1 | > 50 | > 50 | 45.8 | –
11 | Cc1nc2cc(-c3cc(NS(C)(=O)=O)ccc3Oc3ccc(F)cc3)ccc2[nH]c1=O | 0.103 | 6.4 | 11.3 | 3.81 | 36.5 | –
12 | Cc1nc2cc(-c3cc(CS(C)(=O)=O)ccc3Oc3ccc(F)cc3F)ccc2[nH]c1=O | 0.753 | 17.6 | 22.9 | > 50 | 36.1 | –
13 | Cc1nc2cc(-c3cc(NS(C)(=O)=O)ccc3Oc3ccc(F)cc3Cl)ccc2[nH]c1=O | 1.56 | – | – | – | – | –
14 | Cc1nc2cc(-c3cc(NS(C)(=O)=O)ccc3Oc3ccc(F)cc3F)ccc2[nH]c1=O | – | 6.86 | 16.1 | 7.44 | 33.5 | –

Now from value to compound, other results behind:

Row | IC50 [1] [µM] | IC50 [2] [µM] | IC50 [3] [µM] | IC50 [5] [µM] | Compound | IC50 at 72 h [4] [µM] | other results
15 | 1.31 | – | – | – | Cc1nc2cc(-c3cc(C(=O)N4CCN(C)CC4)ccc3Oc3ccc(F)cc3F)ccc2[nH]c1=O | – | –
16 | 2.33 | – | – | – | COc1cc(Cl)ccc1Oc1ccc(NS(C)(=O)=O)cc1-c1ccc2[nH]c(=O)c(C)nc2c1 | – | –
17 | 0.406 | 20.2 | 33.5 | 34.5 | Cc1nc2cc(-c3cc(C(C)O)ccc3Oc3ccc(F)cc3F)ccc2[nH]c1=O (stereo not given) | 30.8 | –
18 | 1.13 | – | – | – | Cc1nc2cc(-c3cc(C(C)(C)O)ccc3Oc3ccc(F)cc3F)ccc2[nH]c1=O | – | –
19 | 3.97 | – | – | – | Cc1nc2cc(-c3cc(S(C)(=O)=O)ccc3Oc3ccc(F)cc3F)ccc2[nH]c1=O | – | –
20 | 4.22 | – | – | – | COC(=O)c1ccc(Oc2ccc(F)cc2F)c(-c2ccc3[nH]c(=O)c(C)nc3c2)c1 | – | –
21 | – | 16.5 | 14.8 | 1.93 | CCc1nc2cc(-c3cc(NS(C)(=O)=O)ccc3Oc3ccc(F)cc3F)ccc2[nH]c1=O | 29.8 | –
